Results published in publication PMC8636514, “Therapeutic potential of TRPM8 antagonists in prostate cancer” (Scientific Reports, 2021).

Key:
Type in all cases: cell-based, human
FAK, paxillin = experiment: Western blot of FAK activation and paxillin phosphorylation in LNCaP cells; conditions: for androgen-elicited FAK activation and paxillin phosphorylation: 10 nM R1881, 10 min; for androgen-elicited FAK activation and paxillin phosphorylation / FAK or paxillin phosphorylation when used alone: compound 1 μM; for FAK or paxillin phosphorylation when used alone: no R1881
Excerpt: (§1) All performed as reported. The mouse monoclonal anti-AR (441; Santa Cruz) antibody was used in Co-Ip or WB approaches. TRPM8 was detected using the rabbit polyclonal anti-TRPM8 (NBP1-97311; Novus Biological). […] The rabbit polyclonal anti-ERK (C-14; Santa Cruz), antibody was used to detect total ERK. FAK and P-Tyr397 FAK were detected using the mouse monoclonal anti-FAK (Clone 77/610077 BD Transduction Laboratories) or anti P-Tyr397 FAK (Clone 14/611722; BD Transduction Laboratories) antibodies, respectively. P-Tyr118 paxillin and total paxillin were detected using the rabbit polyclonal anti-P-Y118 (#2541, Cell Signaling) or the mouse monoclonal anti-paxillin (clone 349; BD Biosciences) antibodies, respectively. […] P-Tyr 416 Src and Src were detected using the rabbit monoclonal anti P-Tyr 416 Src (#6943; Cell Signaling) or the mouse monoclonal anti Src (Calbiochem) antibodies, respectively. ERα and ERβ were detected using the rabbit polyclonal anti-ERα (543; Santa Cruz) or anti-ERβ (Upstate Biotechnology, U.S.A.) antibodies. Cyclin D1, p27 and Cdk4 were stained using the mouse monoclonal anti-cyclin D1 (clone AM29; from Zymed Laboratories Inc.), the rabbit polyclonal anti-p27 (C-19; Santa Cruz) or anti Cdk-4 (c-22; Santa Cruz) antibodies, respectively. The mouse monoclonal anti-tubulin (Sigma-Aldrich) antibody was used to detect tubulin. The ECL system (GE Healthcare) was employed to reveal immune-reactive proteins. Densitometric analysis of WB was performed by using Image J Software (https://imagej.nih.gov/ij).

DU-CaP cells [1] = experiment: DNA synthesis (BrdU incorporation) in DU-CaP cells; conditions: 10 nM R1881, 18 h, compound 1 μM
Procedure: (§2) Cells on coverslips were pulsed in vivo with BrdU (Sigma-Aldrich; at 100 μM, final concentration) and left unchallenged or challenged with 10 nM R1881 for 18 h, in the absence or presence of the indicated compounds. Cells were fixed, permeabilized, washed and the BrdU incorporation was analysed as reported. Nuclei were stained with Hoechst and cells on coverslips were scored by IF microscopy, using a DMLB Leica (Leica) fluorescent microscope, equipped with HCX PL Apo 63 × oil objective. Different fields from each coverslip were analyzed and BrdU incorporation was calculated by the formula: percentage of BrdU-positive cells = (No. of BrdU-positive cells/No. of total cells) × 100. Data in the graphs derive from at least 1000 scored cells for each coverslip. Representative images were captured using DC480 camera (Leica) and acquired using Leica Suite software. They are representative of three different experiments.

DU-CaP cells [2] = experiment: Invasion assay, DU-CaP cells; conditions: 10 nM R1881, compound 1 μM; compared with LNCaP
Procedure: (§3) In wound scratch analysis, 1.8 × 10^5 cells were seeded in a 24-well plate and made quiescent. Cells were then wounded using 10 µl sterile pipette tips and washed with PBS. They were left un-stimulated or stimulated for the indicated times, in the absence or presence of the selected compounds. To avoid cell proliferation, cytosine arabinoside (Sigma-Aldrich) at 50 μM (final concentration) was included in the cell medium. Different fields were analysed by contrast-phase microscopy, as below described in this section. Migration and invasion assays were done as reported. In migration assay, we used 3 × 10^4 cells in collagen pre-coated Boyden’s chambers with 8 μm polycarbonate membrane (Falcon). The indicated stimuli were added to the upper and the lower chambers. […] Migrating and invading cells were scored by fluorescence microscopy, as below described in this section.
(§4) In wound scratch assay, different fields were analysed using DMIRB inverted microscope (Leica) equipped with N-Plan 10 × objective (Leica), as reported. LNCaP organoids were analysed using the same microscope equipped with C-Plan 40 × or HCX PL Fluotar 63 × objectives (Leica). […] The relative organoid size was calculated using the same software and expressed as a fold increase over the basal organoid size (measured at 3th day). The wound gap was calculated using Image J Software and expressed as % of the decrease in the wound area. […]

PSA = PSA secretion (ELISA) from LNCaP cells; conditions: compound 1 μM; for androgen-induced PSA secretion: 10 nM R1881, 48 h; for PSA secretion when used alone: no R1881
Procedure: It was done in culture medium using the PSA ELISA kit (Abnova-Taiwan Corporation, Taiwan), according to the manufacturer’s instructions. Released PSA was analyzed at 450 nm using the EnSpire Multimode Plate Reader (Perkin-Elmer, U.S.A.).

22Rv1 cells [3] = experiment: Invasion assay, 22Rv1 cells; conditions: 10 nM R1881, compound 1 μM; compared with LNCaP
Procedure: as §3, §4

LNCaP cells [4] = experiment: DNA synthesis (BrdU incorporation) in LNCaP cells; conditions: for effect on DNA synthesis stimulated by R1881: 1 nM R1881, compound 1 μM; for inhibitory effect on R1881-stimulated DNA synthesis, compared with 3 and 5: 10 nM R1881, compound 1 μM
Procedure: as §2, with “Cells on coverslips were pulsed in vivo with BrdU (Sigma-Aldrich; at 100 μM, final concentration) and left unchallenged or challenged with 10 nM R1881 for 18 h, in the absence or presence of the indicated compounds.” left out

22Rv1 cells [5] = experiment: DNA synthesis (BrdU incorporation) in 22Rv1 cells; conditions: 10 nM R1881, 18 h, compound 1 μM
Procedure: as §2

LNCaP cells [6] = experiment: Invasion assay in Matrigel, LNCaP cells; conditions: for androgen-induced invasion: 10 nM R1881, compound 1 μM; for invasion in the absence of hormone: compound 1 μM alone
Procedure: (§5) In wound scratch analysis, 1.8 × 10^5 cells were seeded in a 24-well plate and made quiescent. Cells were then wounded using 10 µl sterile pipette tips and washed with PBS. They were left un-stimulated or stimulated for the indicated times, in the absence or presence of the selected compounds. To avoid cell proliferation, cytosine arabinoside (Sigma-Aldrich) at 50 μM (final concentration) was included in the cell medium. Different fields were analysed by contrast-phase microscopy, as below described in this section. Migration and invasion assays were done as reported. In migration assay, we used 3 × 10^4 cells in collagen pre-coated Boyden’s chambers with 8 μm polycarbonate membrane (Falcon). The indicated stimuli were added to the upper and the lower chambers. Cytosine arabinoside (at 50 μM) was included in the cell medium. After 7 h, non-migrating cells from the membrane upper surface were removed using a sterile cotton swab. In invasion assay, we used 5 × 10^4 cells in Boyden’s chambers with 8 μm polycarbonate membrane (Falcon) pre-coated with growth factor reduced- and phenol red-free Matrigel (Corning). The indicated stimuli were added to the upper and the lower chambers. Cytosine arabinoside (at 50 μM) was included in the cell medium. After 24 h, non-invading cells from the membrane upper surface were removed using a sterile cotton swab. In migration and invasion assays, the membranes were fixed for 20 min in 4% paraformaldehyde, stained with Hoechst (Sigma-Aldrich), removed with forceps from the companion plate and mounted. Migrating and invading cells were scored by fluorescence microscopy, as below described in this section.
(§6) In wound scratch assay, different fields were analysed using DMIRB inverted microscope (Leica) equipped with N-Plan 10 × objective (Leica), as reported. LNCaP organoids were analysed using the same microscope equipped with C-Plan 40 × or HCX PL Fluotar 63 × objectives (Leica). Images were captured using a DFC 450C camera (Leica) and acquired using the Application Suite Software (Leica). They are representative of three different experiments. The relative organoid size was calculated using the same software and expressed as a fold increase over the basal organoid size (measured at 3th day). The wound gap was calculated using Image J Software and expressed as % of the decrease in the wound area. Migrating or invading cells from at least 30 fields/each membrane were scored, using a DMLB (Leica) fluorescent microscope, equipped with HCPL Fluotar 20 × objective.

ERK, RSK = experiment: Western blot of ERK and RSK activation in LNCaP cells; conditions: compound 1 μM; for androgen-triggered ERK and RSK activation: 10 nM R1881, 10 min; for ERK and RSK phosphorylation/activation when used alone: no R1881
Excerpt: as §1

DU-CaP cells [7] = experiment: Transmigration assay, DU-CaP cells; conditions: 10 nM R1881, compound 1 μM; compared with LNCaP
Procedure: as §3, §4

LNCaP cells [8] = experiment: Transmigration assay in Boyden chamber, LNCaP cells; conditions: for androgen-induced cell migration: 10 nM R1881, compound 1 μM; for migration when added alone: compound 1 μM, no hormone
Procedure: as §5, §6

Compound | androgen-elicited FAK activation and paxillin phosphorylation (FAK, paxillin) | FAK or paxillin phosphorylation when used alone (FAK, paxillin) | androgen-stimulated BrdU incorporation (DU-CaP cells [1]) | androgen-induced invasion (DU-CaP cells [2]) | androgen-induced PSA secretion (PSA) | PSA secretion when used alone (PSA) | androgen-induced invasion (22Rv1 cells [3]) | effect on DNA synthesis stimulated by R1881 (LNCaP cells [4]) | inhibitory effect on R1881-stimulated DNA synthesis, compared with 3 and 5 (LNCaP cells [4]) | androgen-stimulated BrdU incorporation (22Rv1 cells [5]) | androgen-induced invasion (LNCaP cells [6]) | invasion in the absence of hormone (LNCaP cells [6]) | androgen-triggered ERK and RSK activation (ERK, RSK) | ERK and RSK phosphorylation/activation when used alone (ERK, RSK) | androgen-induced migration (DU-CaP cells [7]) | androgen-induced cell migration (LNCaP cells [8]) | migration when added alone (LNCaP cells [8]) | other results
COC(=O)[C@H](Cc1c[nH]c2ccccc12)N(Cc1ccccc1)Cc1ccccc1 [Compound 6] | impaired | did not affect | significantly inhibited | Superimposable results | negligible inhibition | Neither the two TRPM8 antagonists, nor enzalutamide did modify such response | Superimposable results | reverted | stronger | significantly inhibited | reversed | negligible effect | inhibited | leaving unaffected | Superimposable results | inhibited | leaving unaffected | 
c1ccc(COc2ccc3[nH]cc(CCNCc4ccc(Oc5ccccc5)cc4)c3c2)cc1 [Compound 4] | impaired | did not affect | significantly inhibited | Superimposable results | negligible inhibition | Neither the two TRPM8 antagonists, nor enzalutamide did modify such response | Superimposable results | reverted | stronger | significantly inhibited | reversed | negligible effect | inhibited | leaving unaffected | Superimposable results | inhibited | leaving unaffected | 
C[C@]1(O)CC[C@H]2[C@@H]3CCC4=CC(=O)CCC4=C3C=C[C@@]21C [Compound R1881, reference compound] |  |  |  |  |  |  |  |  |  |  |  |  |  |  |  |  |  | FAK activation and paxillin phosphorylation (FAK, paxillin; 10 nM R1881 alone, within 10 min): triggered; increase of the DNA synthesis (LNCaP cells [4]; 1 nM R1881 alone): ~2 folds; increase in BrdU incorporation (LNCaP cells [4]; 10 nM R1881 alone): ~3,5 folds; increase in number of invading cells in Matrigel (LNCaP cells [6]; 10 nM R1881 alone): 1,6 folds; increase in number of migrating cells (LNCaP cells [8]; 10 nM R1881 alone): ~3 folds
